# How the values were obtained:
# [1] = test system: barnyardgrass; assay: Test B pre-/postemergence herbicide test; format: in vivo, Echinochloa crus-galli
# Method in brief: (§1)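 Seeds were planted and treated preemergence with compounds formulated in a non-phytotoxic solvent mixture containing surfactant, while plants at the 1- to 4-leaf stage (2 to 18 cm) received postemergence sprays. Flooded paddy plants were grown to the 2-leaf stage. After 13 to 15 days in a greenhouse, injury was visually rated 0–100 against untreated controls.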
# [2] = test system: Surinam grass; assay: Test B pre-/postemergence herbicide test; format: in vivo, Urochloa decumbens
# Method in brief: (§2)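 Greenhouse pot assay with simultaneous preemergence (treated seed) and postemergence (2–18 cm seedlings) applications of surfactant-containing, non-phytotoxic solvent formulations. Response scored visually 13–15 days later on a 0–100 scale, 100 meaning complete control.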
# [3] = test system: cocklebur; assay: Test B pre-/postemergence herbicide test; format: in vivo, Xanthium strumarium
# Method in brief: as §1
# [4] = test system: corn; assay: Test B pre-/postemergence herbicide test; format: in vivo, Zea mays
# Method in brief: as §2
# [5] = test system: large crabgrass; assay: Test B pre-/postemergence herbicide test; format: in vivo, Digitaria sanguinalis
# Method in brief: as §2
# [6] = test system: giant foxtail; assay: Test B pre-/postemergence herbicide test; format: in vivo, Setaria faberi
# Method in brief: as §2
# [7] = test system: lambsquarters; assay: Test B pre-/postemergence herbicide test; format: in vivo, Chenopodium album
# Method in brief: as §2
# [8] = test system: morningglory; assay: Test B pre-/postemergence herbicide test; format: in vivo, Ipomoea coccinea
# Method in brief: as §1
# [9] = test system: pigweed; assay: Test B pre-/postemergence herbicide test; format: in vivo, Amaranthus retroflexus
# Method in brief: as §2
# [10] = test system: velvetleaf; assay: Test B pre-/postemergence herbicide test; format: in vivo, Abutilon theophrasti
# Method in brief: as §2
# [11] = test system: blackgrass; assay: Test B postemergence herbicide test; format: in vivo, Alopecurus myosuroides
# Method in brief: (§3)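 Postemergence plants were sprayed with formulated test chemicals at 2 to 18 cm height (1- to 4-leaf stage); paddy species were grown to the 2-leaf stage. After 13 to 15 days in a greenhouse, injury was rated visually against untreated controls on a 0–100 scale (0 = no effect, 100 = complete control).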
# [12] = test system: wheat; assay: Test B postemergence herbicide test; format: in vivo, Triticum aestivum; set-up: key to Wheat plant response rating: 0 = no effect, 100 = complete control
# Method in brief: (§4)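 Greenhouse test; postemergence application to plants at 1–4 leaves (2–18 cm); paddy species at 2 leaves; evaluated visually vs controls at 13–15 days; scale 0–100 (100 = complete control).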
# [13] = test system: wild oat; assay: Test B postemergence herbicide test; format: in vivo, Avena fatua
# Method in brief: as §4
# [14] = test system: rice; assay: Test B flooded paddy test; format: in vivo, Oryza sativa; conditions: 1000 g ai/ha, scale 0 to 100 (0 no effect, 100 complete control)
# Method in brief: as §4
# [15] = test system: small flower umbrella sedge; assay: Test B flooded paddy test; format: in vivo, Cyperus difformis; conditions: 1000 g ai/ha, scale 0 to 100 (0 no effect, 100 complete control)
# Method in brief: as §3
# [16] = test system: ducksalad; assay: Test B flooded paddy test; format: in vivo, Heteranthera limosa; conditions: 1000 g ai/ha, scale 0 to 100 (0 no effect, 100 complete control)
# Method in brief: as §3
# [17] = test system: barnyardgrass; assay: Test B flooded paddy test; format: in vivo, Echinochloa crus-galli; conditions: 1000 g ai/ha, scale 0 to 100 (0 no effect, 100 complete control)
# Method in brief: as §3
# [18] = 500 g ai/ha, visual rating 0-100, 0 no effect, 100 complete control, preemergence
# [19] = Postemergence, 500 g ai/ha, visual rating after 13 to 15 days, scale 0 (no effect) to 100 (complete control)
# [20] = postemergence, 125 g ai/ha, visual rating, scale 0 (no effect) to 100 (complete control)
# [21] = preemergence, 125 g ai/ha, 0 to 100 scale, 0 is no effect, 100 is complete control
# [22] = Postemergence, 250 g ai/ha, scale 0 (no effect) to 100 (complete control)
# [23] = postemergence, 62 g ai/ha, scale 0 to 100
# [24] = 125 g ai/ha, 0 is no effect, 100 is complete control, preemergence
# [25] = 125 g ai/ha, visual rating, scale 0 (no effect) to 100 (complete control), postemergence
# [26] = 500 g ai/ha, visual rating, 0 = no effect, 100 = complete control, preemergence
# [27] = postemergence, 500 g ai/ha, scale 0 to 100, 0 is no effect, 100 is complete control
smiles,measurement,setting,value
CCON=C(C)c1cccc(NC(=O)c2cc(C(C)(C)C)nn2C)c1 [Compound 105],"Plant response rating, Barnyardgrass",[1]; [18],30
same,"Plant response rating, Barnyardgrass",[1]; [19],0
same,Barnyardgrass plant response rating,[1]; [20],0
same,"Plant response rating, Barnyardgrass",[1]; [21],0
same,"Plant response rating, Surinam Grass",[2]; [18],10
same,"Plant response rating, Surinam Grass",[2]; [19],10
same,Surinam Grass plant response rating,[2]; [20],0
same,"Plant response rating, Surinam Grass",[2]; [21],0
same,"Plant response rating, Cocklebur",[3]; [18],0
same,"Plant response rating, Cocklebur",[3]; [19],30
same,Cocklebur plant response rating,[3]; [20],30
same,"Plant response rating, Cocklebur",[3]; [21],0
same,"Plant response rating, Corn",[4]; [18],0
same,"Plant response rating, Corn",[4]; [19],0
same,Corn plant response rating,[4]; [20],0
same,"Plant response rating, Corn",[4]; [21],0
same,"Plant response rating, Crabgrass, Large",[5]; [18],90
same,"Plant response rating, Crabgrass, Large",[5]; [19],0
same,"Crabgrass, Large plant response rating",[5]; [20],0
same,"Plant response rating, Crabgrass, Large",[5]; [21],0
same,"Plant response rating, Foxtail, Giant",[6]; [18],10
same,"Plant response rating, Foxtail, Giant",[6]; [19],0
same,"Foxtail, Giant plant response rating",[6]; [20],0
same,"Plant response rating, Foxtail, Giant",[6]; [21],0
same,"Plant response rating, Lambsquarters",[7]; [18],80
same,"Plant response rating, Lambsquarters",[7]; [19],80
same,Lambsquarters plant response rating,[7]; [20],50
same,"Plant response rating, Lambsquarters",[7]; [21],0
same,"Plant response rating, Morningglory",[8]; [18],10
same,"Plant response rating, Morningglory",[8]; [19],10
same,Morningglory plant response rating,[8]; [20],0
same,"Plant response rating, Morningglory",[8]; [21],0
same,"Plant response rating, Pigweed",[9]; [18],80
same,"Plant response rating, Pigweed",[9]; [19],80
same,Pigweed plant response rating,[9]; [20],0
same,"Plant response rating, Pigweed",[9]; [21],0
same,"Plant response rating, Velvetleaf",[10]; [18],0
same,"Plant response rating, Velvetleaf",[10]; [19],0
same,Velvetleaf plant response rating,[10]; [20],0
same,"Plant response rating, Velvetleaf",[10]; [21],0
same,"Plant response rating, Blackgrass",[11]; [19],0
same,Blackgrass plant response rating,[11]; [20],0
same,"Plant response rating, Wheat",[12]; [19],0
same,Wheat plant response rating,[12]; [20],0
same,"Plant response rating, Oat, Wild",[13]; [19],10
same,"Oat, Wild plant response rating",[13]; [20],0
same,Rice plant response rating,"[14]; visual rating, 13 to 15 days",0
same,"Sedge, Umbrella plant response rating","[15]; visual rating, 13 to 15 days",70
same,Ducksalad plant response rating,"[16]; visual rating, 13 to 15 days",70
same,Barnyardgrass plant response rating,"[17]; visual rating, 13 to 15 days",20
CCN(CC)C(=O)c1cccc(NC(=O)c2cn(C(C)(C)C)nc2C(F)(F)F)c1 [Compound 191],Barnyardgrass plant response rating,[1]; [22],10
same,Barnyardgrass plant response rating,[1]; [23],0
same,Surinam Grass plant response rating,[2]; [22],10
same,Surinam Grass plant response rating,[2]; [23],10
same,Cocklebur plant response rating,[3]; [22],10
same,Cocklebur plant response rating,[3]; [23],0
same,Corn plant response rating,[4]; [22],10
same,Corn plant response rating,[4]; [23],10
same,"Crabgrass, Large plant response rating",[5]; [22],20
same,"Crabgrass, Large plant response rating",[5]; [23],20
same,"Foxtail, Giant plant response rating",[6]; [22],20
same,"Foxtail, Giant plant response rating",[6]; [23],10
same,Lambsquarters plant response rating,[7]; [22],80
same,Lambsquarters plant response rating,[7]; [23],60
same,Morningglory plant response rating,[8]; [22],90
same,Morningglory plant response rating,[8]; [23],40
same,Pigweed plant response rating,[9]; [22],70
same,Pigweed plant response rating,[9]; [23],30
same,Velvetleaf plant response rating,[10]; [22],20
same,Velvetleaf plant response rating,[10]; [23],10
same,Blackgrass plant response rating,[11]; [22],10
same,Blackgrass plant response rating,[11]; [23],0
same,Wheat plant response rating,"[12]; 250 g ai/ha, scale 0 to 100, 0 no effect, 100 complete control, preemergence",0
same,Wheat plant response rating,[12]; [22],0
same,Wheat plant response rating,[12]; [23],0
same,"Oat, Wild plant response rating",[13]; [22],20
same,"Oat, Wild plant response rating",[13]; [23],10
same,Rice plant response rating,"[14]; visual rating, 13 to 15 days",0
same,"Sedge, Umbrella plant response rating","[15]; visual rating, 13 to 15 days",90
same,Ducksalad plant response rating,"[16]; visual rating, 13 to 15 days",20
same,Barnyardgrass plant response rating,"[17]; visual rating, 13 to 15 days",20
CCNC(=O)c1ccc(F)c(NC(=O)c2cn(C(C)(C)C)nc2C)c1 [Compound 345],"Plant response rating (0 to 100 scale), Barnyardgrass",[1]; [24],20
same,Barnyardgrass plant response rating,[1]; [25],0
same,"Plant response rating, Barnyardgrass",[1]; [26],30
same,Barnyardgrass plant response rating,[1]; [27],0
same,"Plant response rating (0 to 100 scale), Surinam Grass",[2]; [24],20
same,Surinam Grass plant response rating,[2]; [25],0
same,"Plant response rating, Surinam Grass",[2]; [26],70
same,Surinam Grass plant response rating,[2]; [27],0
same,"Plant response rating (0 to 100 scale), Cocklebur",[3]; [24],0
same,Cocklebur plant response rating,[3]; [25],0
same,"Plant response rating, Cocklebur",[3]; [26],10
same,Cocklebur plant response rating,[3]; [27],0
same,"Plant response rating (0 to 100 scale), Corn",[4]; [24],0
same,Corn plant response rating,[4]; [25],0
same,"Plant response rating, Corn",[4]; [26],10
same,Corn plant response rating,[4]; [27],0
same,"Plant response rating (0 to 100 scale), Crabgrass, Large",[5]; [24],30
same,"Crabgrass, Large plant response rating",[5]; [25],0
same,"Plant response rating, Crabgrass, Large",[5]; [26],90
same,"Crabgrass, Large plant response rating",[5]; [27],0
same,"Plant response rating (0 to 100 scale), Foxtail, Giant",[6]; [24],10
same,"Foxtail, Giant plant response rating",[6]; [25],0
same,"Plant response rating, Foxtail, Giant",[6]; [26],30
same,"Foxtail, Giant plant response rating",[6]; [27],0
same,"Plant response rating (0 to 100 scale), Lambsquarters",[7]; [24],70
same,Lambsquarters plant response rating,[7]; [25],20
same,"Plant response rating, Lambsquarters",[7]; [26],100
same,Lambsquarters plant response rating,[7]; [27],20
same,"Plant response rating (0 to 100 scale), Morningglory",[8]; [24],20
same,Morningglory plant response rating,[8]; [25],10
same,"Plant response rating, Morningglory",[8]; [26],50
same,Morningglory plant response rating,[8]; [27],10
same,"Plant response rating (0 to 100 scale), Pigweed",[9]; [24],60
same,Pigweed plant response rating,[9]; [25],20
same,"Plant response rating, Pigweed",[9]; [26],100
same,Pigweed plant response rating,[9]; [27],20
same,"Plant response rating (0 to 100 scale), Velvetleaf",[10]; [24],30
same,Velvetleaf plant response rating,[10]; [25],10
same,Velvetleaf plant response rating,[10]; [27],10
same,Blackgrass plant response rating,[11]; [25],0
same,Blackgrass plant response rating,[11]; [27],0
same,Wheat plant response rating,[12]; [25],0
same,Wheat plant response rating,[12]; [27],0
same,"Oat, Wild plant response rating",[13]; [25],0
same,"Oat, Wild plant response rating",[13]; [27],10
same,Rice plant response rating,[14],40
same,"Sedge, Umbrella plant response rating",[15],80
same,Ducksalad plant response rating,[16],70
same,Barnyardgrass plant response rating,[17],30

# From patent US20060069132A1, “Azolecarboxamide herbicides” (priority 2004, published 2006)
